The test system of data set [1] is Plasmodium falciparum. Nature of the data set: NOVARTIS: Inhibition of Plasmodium falciparum 3D7 (drug-susceptible) proliferation in erythrocyte-based infection assay. Format: functional, organism-based. To be noted: Plasmodium falciparum, 3D7.
The subject of data set [2] is Plasmodium falciparum. Put plainly: NOVARTIS: Inhibition of Plasmodium falciparum W2 (drug-resistant) proliferation in erythrocyte-based infection assay. As to conditions: Plasmodium falciparum, W2; read-out: EC50. Format: functional, organism-based.
The nature of data set [3]: NOVARTIS: Cytotoxicity against human hepatocellular carcinoma cell line (Huh7). It counts as toxicity, cell-based, Huh-7. As to conditions: Huh7 cells (hepatocellular carcinoma cell line).

SMILES strings stand for the structures. Some results are limits rather than exact numbers.

This is an account of results in ChEMBL document CHEMBL1156829 (Proc Natl Acad Sci U S A, 2008).

With `COc1cc(CNc2ccc3nc(N)nc(N)c3c2)cc(OC)c1OC`, the figures for the half-maximal effective concentration (EC50) in data set [1] and in data set [2] were greater than 1.03 µM and greater than 1.25 µM, respectively. For the same molecule, the CC50 in data set [3] is greater than 10 µM.
The like results for `O=c1c(=Cc2ccc(-c3ccc([N+](=O)[O-])cc3Cl)o2)sc2nc3ccccc3n12` were, in that order, greater than 1.13 µM, greater than 1.25 µM and greater than 10 µM.
Take `CC=C[C@H]1O[C@@](O)([C@@H](C)C(O)C(C)[C@H]2OC(=O)C(OC)=CC(C)=C[C@@H](C)[C@H](O)C(CC)[C@@H](O)[C@H](C)CC(C)=CC=C[C@@H]2OC)C[C@@H](O[C@H]2C[C@@H](O)[C@H](OC(N)=O)[C@@H](C)O2)[C@@H]1C` (some centres undefined): the half-maximal effective concentration (EC50) in data set [1] was 1.18 µM; in data set [2], greater than 1.25 µM. In addition, the CC50 in data set [3] is greater than 10 µM.
Turning to `COc1ccc(-c2ccc(C=C3C(=O)NC(=S)NC3=O)o2)cc1Cl`, the EC50 is greater than 1.04 µM in data set [1] and greater than 1.25 µM in data set [2]. The molecule also gave a 50% cytotoxic concentration (CC50) in data set [3] greater than 10 µM.
On the same counts, the results for `CN(C)CCN1CCN(c2cncc(-c3cccnc3)n2)CC1` are greater than 1.11 µM, greater than 1.25 µM and greater than 10 µM.
On the same counts, the results for `CCNC(=O)NS(=O)(=O)c1cnccc1Sc1cccc(C)c1` are greater than 1.03 µM, greater than 1.25 µM and greater than 10 µM.
The like results for `CC1CCCCN1CCCNc1ncc(C(=O)NCCc2ccccc2)c(Nc2ccccc2)n1` (centres undefined) were, in that order, 1.12 µM, greater than 1.25 µM and greater than 10 µM.
As to `COc1cc2c(cc1OC)C(=NN=C1NC(C)(C)Cc3ccccc31)NC(C)(C)C2`, the EC50 in data set [1] was 1.03 µM; in data set [2], greater than 1.25 µM. In data set [3], this molecule had a CC50 greater than 10 µM.
The like results for `CC(C)CC1=Nc2cc(C(=O)NC(C)C)ccc2CN1Cc1ccccc1` were, in that order, greater than 1.03 µM, greater than 1.25 µM and greater than 10 µM.
Take `CCCc1cc2c(=O)c(-c3cc4ccccc4o3)coc2cc1OC(C)C(=O)OCC` (centres undefined): the EC50 in data set [1] is greater than 1.17 µM; in data set [2] it was greater than 1.25 µM. The same molecule showed a CC50 in data set [3] greater than 10 µM.
With `c1ccc(COCC[N+]2(Cc3ccccc3)CCCCC2)cc1`, the 50% effective concentration (EC50) in data set [1] was greater than 1.16 µM; in data set [2], greater than 1.25 µM. In data set [3], this molecule returned a cytotoxic concentration (CC50) greater than 10 µM.
Consider `COc1cc2c(cc1/C=C(/C#N)c1cccc(C)c1)OCO2`, for which the EC50 in data set [1] is greater than 1.06 µM; in data set [2] it was greater than 1.25 µM. The molecule also came in with a half-maximal cytotoxic concentration (CC50) in data set [3] greater than 10 µM.
As for `COc1ccc(CN2CCc3nnc(CCc4ccccc4)n3CC2)c(F)c1`, the EC50 in data set [1] was greater than 1.06 µM; in data set [2] it was greater than 1.25 µM. In addition, the CC50 in data set [3] was greater than 10 µM.
On the same counts, the results for `COc1ccc2nc(NC(=O)c3ccc(C#N)cc3)sc2c1` are greater than 1.06 µM, greater than 1.25 µM and greater than 10 µM.
Regarding `O=C(Nc1ccc2c(c1)S(=O)(=O)c1cc(NC(=O)c3cccs3)ccc1-2)c1cccs1`, the concentration giving a half-maximal response (EC50) was 1.11 µM in data set [1] and greater than 1.25 µM in data set [2]. Moreover, the CC50 in data set [3] is greater than 10 µM.
The like results for `CCOc1ccc2cc(C#N)c(SCC(=O)N3CC(=O)Nc4ccccc43)nc2c1` were, in that order, greater than 1.11 µM, greater than 1.25 µM and greater than 10 µM.
Regarding `Cc1ccc2oc(=O)c3cnn(CC(=O)Nc4ccc(F)cc4Cl)c3c2c1`, the half-maximal effective concentration (EC50) is greater than 1.15 µM in data set [1] and greater than 1.25 µM in data set [2]. Further, the CC50 in data set [3] was greater than 10 µM.
Turning to `COc1cccc(/C=C2/SC(=Nc3ccccc3)NC2=O)c1OC`, the EC50 is greater than 1.15 µM in data set [1] and greater than 1.25 µM in data set [2]. This molecule yielded a CC50 in data set [3] greater than 10 µM.
On the same counts, the results for `CC(C)CNC(=O)c1cnc(NCCCN2CCCCC2C)nc1Nc1ccccc1` (centres undefined) are 1.15 µM, greater than 1.25 µM and greater than 10 µM.
For the molecule `CC1CCCN(Cc2nnnn2-c2ccc(Cl)cc2)C1` (centres undefined), the figures for the EC50 in data set [1] and in data set [2] were greater than 1.01 µM and greater than 1.25 µM, respectively. In addition, in data set [3], the cytotoxic concentration (CC50) is greater than 10 µM.
In the case of `COC(=O)C1=C(C)N/C(=C/c2cc(C)n(-c3ccc(Cl)c(Cl)c3)c2C)C1=O`, the half-maximal effective concentration (EC50) in data set [1] was greater than 1.02 µM; in data set [2], greater than 1.25 µM. This molecule also showed a 50% cytotoxic concentration (CC50) in data set [3] greater than 10 µM.
On the same counts, the results for `CCOC(=O)c1c(NC(=O)Cc2ccc([N+](=O)[O-])cc2)sc2c1CCCC2` are greater than 1.06 µM, greater than 1.25 µM and greater than 10 µM.
The like results for `COc1ccccc1-c1nnc(Nc2nc3cc4c(cc3s2)OCO4)o1` were, in that order, greater than 1.05 µM, greater than 1.25 µM and greater than 10 µM.
The like results for `CNC(=O)[C@@H]1C[C@@H](NCc2ccc(OC)cc2)CN1Cc1ccccc1` were, in that order, greater than 1.1 µM, greater than 1.25 µM and greater than 10 µM.
As for `COc1ccc(-n2nc(C(=O)NCC(=O)Nc3ccc(F)cc3)c3ccccc3c2=O)cc1Cl`, the EC50 in data set [1] was greater than 1.14 µM; in data set [2], greater than 1.25 µM. For the same molecule, the 50% cytotoxic concentration (CC50) in data set [3] was greater than 10 µM.
`COCCn1c(=S)[nH]c2cc(C(=O)NCCc3ccc(S(N)(=O)=O)cc3)ccc2c1=O`: the EC50 in data set [1] is greater than 1.08 µM; in data set [2], greater than 1.25 µM. In addition, in data set [3], the CC50 was greater than 10 µM.
Consider `COc1ccc(C2C(C(=O)O)c3ccccc3C(=O)N2c2ccc(C)cc2)cc1OC` (centres undefined), for which the 50% effective concentration (EC50) in data set [1] was greater than 1.08 µM; in data set [2], greater than 1.25 µM. For the same molecule, the CC50 in data set [3] was greater than 10 µM.
For `COc1ccc([C@@H]2C[C@H](OC(=O)c3ccc4c(c3)OCO4)C(=O)N2C)cc1`, the concentration giving a half-maximal response (EC50) in data set [1] was 1.18 µM; in data set [2], greater than 1.25 µM. The molecule further had a CC50 in data set [3] greater than 10 µM.
As to `NC(=O)/C(=C\c1cccc2ccccc12)NC(=O)c1ccccc1`, the results for the concentration for a half-maximal effect (EC50) in data set [1] and in data set [2] were greater than 1.14 µM and greater than 1.25 µM, respectively. The CC50 in data set [3] was greater than 10 µM.
On the same counts, the results for `O=c1c2c3c(sc2ncn1CC1CCCCC1)CC(NCc1cccnc1)CC3` (centres undefined) are greater than 1.04 µM, greater than 1.25 µM and greater than 10 µM.
The like results for `O=c1c2c3c(sc2[nH]c(=S)n1C1CCCCC1)CN(Cc1ccccc1)CC3` were, in that order, greater than 1.04 µM, greater than 1.25 µM and greater than 10 µM.
The like results for `CCOC(=O)N1CCN(C(=O)CCCCn2c(=S)[nH]c3ccsc3c2=O)CC1` were, in that order, greater than 1.13 µM, greater than 1.25 µM and greater than 10 µM.
For `CCOC(=O)c1sc(NC(=O)CSc2nnc(CNC(=O)COc3ccccc3)n2C)c(C(=O)OCC)c1C`, the half-maximal effective concentration (EC50) in data set [1] was greater than 1.08 µM; in data set [2] it was greater than 1.25 µM. This molecule yielded a CC50 in data set [3] greater than 10 µM.
Turning to `Cc1ccc(S(=O)(=O)Nc2nc3n(n2)C(c2ccccc2)C=C(c2ccccc2)N3)cc1` (centres undefined), the 50% effective concentration (EC50) in data set [1] was greater than 1.07 µM; in data set [2], greater than 1.25 µM. For the same molecule, in data set [3], the half-maximal cytotoxic concentration (CC50) was greater than 10 µM.
As to `CC(C)CN(CC(O)CN(CCN1CCOCC1)S(=O)(=O)Cc1ccccc1)C(=O)C1CCCN1C(=O)OC(C)(C)C` (centres undefined), the figures for the EC50 in data set [1] and in data set [2] were greater than 1.13 µM and greater than 1.25 µM, respectively. This molecule also had a 50% cytotoxic concentration (CC50) in data set [3] greater than 10 µM.
The like results for `O=C1OC(c2ccccc2)=NC1=C(Cl)Cl` were, in that order, greater than 1.16 µM, greater than 1.25 µM and greater than 10 µM.
The like results for `CCC(C)(C#CCN1CCCC1)OC(C)=O` (centres undefined) were, in that order, greater than 1.05 µM, greater than 1.25 µM and greater than 10 µM.
As for `CC(=O)OC1C(NC(=O)c2cc([N+](=O)[O-])c(N(C)C)c([N+](=O)[O-])c2)OC(C(=O)N2CCOCC2)C(OC(C)=O)C1OC(C)=O` (centres undefined), the EC50 is greater than 1.09 µM in data set [1] and greater than 1.25 µM in data set [2]. Also, in data set [3], the CC50 was greater than 10 µM.
Regarding `Cc1cc2ncn(N=Cc3cccnc3)c2cc1C`, the 50% effective concentration (EC50) was greater than 1.02 µM in data set [1] and greater than 1.25 µM in data set [2]. Moreover, in data set [3], the CC50 was greater than 10 µM.
On to `COc1ccc(/C=C\c2cc[n+](C)cc2)cc1OC`, for which the EC50 in data set [1] is 1.11 µM; in data set [2], greater than 1.25 µM. This molecule yielded a cytotoxic concentration (CC50) in data set [3] greater than 10 µM.
On the same counts, the results for `Cc1ccc(-c2nn(CC(=O)Nc3cccc(C)c3)c(=O)c3ccccc23)cc1` are greater than 1.09 µM, greater than 1.25 µM and greater than 10 µM.
Take `CCOC(=O)C[n+]1cc(CC)sc1N`: the concentration for a half-maximal effect (EC50) is greater than 1.07 µM in data set [1] and greater than 1.25 µM in data set [2]. This molecule also displayed a 50% cytotoxic concentration (CC50) in data set [3] greater than 10 µM.
`COC(=O)C1=C(C(=O)OC)SC(=C2C(=S)C(C)(C)Nc3cc(C)ccc32)S1`: the EC50 in data set [1] is greater than 1.14 µM; in data set [2] it was greater than 1.25 µM. The same molecule registered a cytotoxic concentration (CC50) in data set [3] greater than 10 µM.
For `Cc1ccc(-n2c(SCc3cc(=O)n4ccccc4n3)nc3ccsc3c2=O)cc1C`, the half-maximal effective concentration (EC50) is greater than 1.16 µM in data set [1] and greater than 1.25 µM in data set [2]. In addition, in data set [3], the CC50 is greater than 10 µM.
Consider `O=C(O)c1ccc(C=NNc2ccc([N+](=O)[O-])cc2)cc1`, for which the EC50 is greater than 1.16 µM in data set [1] and greater than 1.25 µM in data set [2]. For the same molecule, the CC50 in data set [3] is greater than 10 µM.
On the same counts, the results for `COc1ccccc1NC(=O)c1n[nH]c(=O)c2ccccc12` are greater than 1.06 µM, greater than 1.25 µM and greater than 10 µM.
Consider `O=C1NCCCCC1N(Cc1cccc(Oc2ccccc2)c1)C(=O)c1ccc(F)cc1` (centres undefined), for which the EC50 is greater than 1.06 µM in data set [1] and greater than 1.25 µM in data set [2]. The CC50 in data set [3] was greater than 10 µM.
The like results for `CC(=O)Nc1cccc(NC(=O)CSc2ccc3nnc(-c4ccc(F)cc4)n3n2)c1` were, in that order, greater than 1.05 µM, greater than 1.25 µM and greater than 10 µM.
The like results for `COc1cccc(N2C(=O)/C(=C/c3cccnc3)SC2=S)c1` were, in that order, greater than 1.14 µM, greater than 1.25 µM and greater than 10 µM.
For `O=C(NN=Cc1ccc(Br)cc1)c1ccco1`, the figures for the EC50 in data set [1] and in data set [2] were 11.4 µM and greater than 12.5 µM, respectively. Also, in data set [3], the 50% cytotoxic concentration (CC50) is greater than 100 µM.
For the molecule `Cn1c(=O)n(C)c2cc(C=NN=c3[nH]cc(-c4ccccc4)s3)ccc21`, the EC50 was greater than 1.07 µM in data set [1] and greater than 1.25 µM in data set [2]. For the same molecule, in data set [3], the cytotoxic concentration (CC50) is greater than 10 µM.
As to `C#CC(C)(C)NS(=O)(=O)c1cc(-c2nnc(Nc3cccc(C)c3)c3ccccc23)ccc1C`, the EC50 was 1.04 µM in data set [1] and greater than 1.25 µM in data set [2]. The molecule further yielded a half-maximal cytotoxic concentration (CC50) in data set [3] greater than 10 µM.
On the same counts, the results for `COc1ccc(-n2c(=S)[nH]c3cc(C(=O)Nc4cccc(C)c4)ccc3c2=O)cc1OC` are greater than 1.04 µM, greater than 1.25 µM and greater than 10 µM.

By EC50 is commonly meant the concentration giving half of the maximal effect. One may read the CC50 as the concentration giving 50% cytotoxicity.
